From patent publication US5330992A, “1-cyclopropyl-4-pyridyl-quinolinones” (priority 1992, dated 1994)
Read-outs that look alike come from different tables or passages of the source.

What was measured:
[1] = target: T1, human topoisomerase II (Homo sapiens, UniProt P11388); assay: Mammalian Topoisomerase II Inhibition Assay (DNA-topo II complex formation); assay type: biochemical; conditions: EC50 = concentration with activity equal to EC50 of reference mAMSA; read-out: TopoII Inh. EC50
T1 construct: Topo II was purified from late log phase suspension cultures of HeLa WIS; endogenous in cells; host or cells: HeLa WIS suspension cultures, late log phase (enzyme purified from the cells)
Protocol: Mammalian Topoisomerase II Inhibition Assay Procedure
The assay quantitates the amount of topo II covalently complexed by DNA at equilibrium during a topo II reaction. This assay determines the potential of a compound to stabilize this complex, which potential is closely related to the cytotoxicity of the compound.
Assays (in duplicate) were assembled at 4° C.
4 ng 3' end labeled (^32 P) pBR322 DNA (10^7 DMP/μg)
The assay mix including the test compound was incubated for 20 minutes at 37° C. The reaction was terminated at 37° C. by the addition of 3 μl 10% SDS followed by the addition of 266 μl 10 mM Tris-Cl pH 7.5, 20 μg/ml BSA, 20 μg/ml calf thymus DNA, 1% SDS.
A SDS/protein precipitate was formed by the addition of 28 μl 2.5M KCl followed by chilling on ice for a minimum of 10 minutes. The precipitate was collected and washed with a Brandell cell harvester on a GFB glass fiber filter membrane as follows. The contents of the assay tube were drawn up into the harvester. The tube was then rinsed 7X with 10 mM Tris-Cl pH 7.5, 1 mM EDTA and 100 mM KCl. […] After drying, CPM was determined by liquid scintillation counting with 5 ml Biofluor (NEN Research Products) or Readisafe (Beckman Instruments Inc.) cocktail.
This solution then was diluted 1/5 into water and serially thereafter in either 0.02N sodium hydroxide or 0.04N hydrogen chloride, respectively. The stock solution and serial dilution of the test compound was stored at -20° C. prior to testing.
Screening of test compound--As an initial screen, the test compound was tested at a final concentration of 2, 20 and 200 μg/ml. The compound was then retested at a range of concentrations (usually 2-3X steps) bridging their approximate EC50 's, as estimated by the prescreen.
Controls--A solvent control which indicates the base level of topo II-DNA complex formed in the absence of the test compound was included in each test. A control, in which topo II was omitted, was included for each test compound at the highest drug concentration tested.
Reference Agent--A dose response curve with mAMSA at 0.01, 0.08, 0.16, 0.32, 1.0 and 10 μg/ml was included in each test.
The maximal DNA-topo II complex formed is taken as that equal to that formed at the nearly saturating dose of mAMSA (10 μg/ml).

[2] = test system: pancreatic ductal adenocarcinoma No. 03 (Panc 03); assay: In vivo antitumor assay, Panc03(sc); design: species or system mouse
Description: (§1) Mice: Inbred: C3H/He and NCR-nu; and Hybrids: B6D2Fl (C57BL/6 females X DBA/2 males, CD2Fl (Balb/c females X DBS/2 males) and B6x C3fl (C57BL/6 x C3H) were bred at Wayne State University from strained obtained from the Frederick Cancer Research Facility, Frederick, Md. or purchased from commercial suppliers.
(§2) Tumors: Murine Tumor: P388 and an adriamycin-resistant (ADR) subline P388/ADR leukemia and the following transplantable solid tumors of mice were used for in Vivo testing: B16 melanoma (B16), pancreatic ductal adenocarcinoma No. 03 (Panc 03), colon adenocarcinoma No. 38 (colo 38), mammary ductal adenocarcinoma No. 16/C (Mam16) and an adriamycin-resistantsubline Mam16C/ADR. Human tumor: A single human tumor, mammary carcinoma MX-1 (MX1) was used for in vivo testing. All tumors are in the Developmental Therapeutics Program frozen tumor respository, maintained by the Biological Testing Branch, Frederick Md. Each has a detailed description, code identification number, and list of references at the National Tumor Repository. Murine tumors were maintained in the mouse strain of origin and were transplanted in the appropriate F1 hydrid (or the strain of origin) for therapy trials. Human mammary carcinoma MX-1 MX1) was maintained as a subcutaneous implant in either athymic Swiss (Cr: NIH(S)-nu) or athymic random bred (NCR-nu) mice and transplanted in NCR-nu for therapy trials.
(§3) Chemotherapy: For pancreatic ductal adenocarcinoma No. 3, colon adenocarcinoma No. 38 (colo38), lung carcinoma No. 12 (LC12) and both adriamycin-sensitive (RP) and -resistant ADR) mammary ductal adenocarcinoma No. 16 (Mam16) tumors, the following methods were used to help ensure a more uniform tumor burden per mouse (thus reducing the requirement for greater numbers of mice per group), bilateral tumor implants were used. The animals necessary to begin an experiment were pooled, implanted bilaterally s.c. on day zero with 30-60-mg tumor fragments using a 12-gauge trocar, and again pooled before randomization to the various treatment and control groups. Chemotherapy was started within three days after tumor implantation while the number of cells per mouse was relatively small (1×10^7 […]).
(§4) Quantitative end points used assess antitumor activity included % Increased Life Span (% ILS), Tumor Cell Kill (Log10 kill), and Tumor Growth Inhibition (T/C). Long Term Survivors (45 or 60 day) were excluded from calculations of % ILS and Tumor Cell Kill.
(§5) The log10 cell kill was calculated from the following formula: [formula] where T-C is the tumor difference in the median day of death between the treated (T) and the control (C) groups and Td is the tumor doubling time (in days), the latter estimated from the best fit straight line from a log-linear growth plot of the control-group tumors in exponential growth. The conversion of the T-C values to log10 cell kill is possible because the Td for tumors regrowing post-treatment approximated the Td values of the tumors in untreated control mice.
(§6) Tumors were measured with a caliper once or twice weekly (as needed) until either tumors exceeded 1600 mg or cure was assured. Tumor weights were estimated from two-dimensional measurements: Tumor Weight (mg)=(a×b^2) / 2, where a and b are the tumor length and width (nun) respectively. Measurements were carried out simultaneously in both treatment and control groups. When the control group tumors reached approximately 750-1500 mg in size (median of group), the median tumor weight of each group was determined (including zeros). The T/C value in percent is an indiation of antitumor effectiveness. The % T/C was calculated from the following formula for solid murine tumor models: [formula] where T and C are median tumor weights of the treatment and control groups, respectively. A T/C equal to or less than 42% is considered significant antitumor activity. […]

[3] = In vivo antitumor assay, Panc03(sc); design: species or system mouse; conditions: mouse, in vivo
Description: as §1, §2, §3, §4, §5, §6

[4] = test system: P388 murine leukemia cells; assay: Malignant cell cytotoxicity, one-hour exposure (clonogenic survival in soft agar); assay type: cell-based; conditions: Mus musculus, 1 hr exposure, read-out: IC50 P388 1 hr. exp.
Protocol: (§7) Examples of compound I having Topo II activity were tested for malignant cell cytotoxicity. In vitro cytotoxicity was assayed by determining cell survival following exposure of P388 murine leukemia cells to a range of test compound concentrations. Cytotoxicity was quantitated following either a one-hour exposure or continuous exposure of P388 cells to test compound.
(§8) Cytotoxicity following a one-hour exposure of cells to drug was assayed by quantitating clonogenic cell survival according to a published procedure [Freshney, R. L. (1987) Culture of Animal Cells. A Manual of Basic Technique. Wiley-Liss Inc., New York, N.Y., pp. 140-144]. Briefly, following drug exposure cells were plated in soft agar and incubated (37°, 5% CO2) for 7-10 days during which time viable cells form visible colonies. Cytotoxicity following continuous exposure of cells to test compound was assayed by quantitating total P388 cells on a Coultier Counter following a 48-hour co-incubation of test compound with cells. P388 cells were maintained in log phase throughout the duration of cytotoxicity assays.
(§9) The percentage of cells surviving relative to an untreated control was graphed as a function of increasing drug concentration.

[5] = test system: P388 murine leukemia cells; assay: Malignant cell cytotoxicity, continuous 48-hour exposure (Coulter Counter); assay type: cell-based; conditions: Mus musculus, read-out: IC50 P388 cont. exp.
Protocol: as §7, §8, §9

[6] = drug route iv, sc, Ex 18 iv qd 3 bid 4-9, sc bid 10-11, Ex 20 iv qd 3,5 bid 4,6-8, sc bid 9-11 qd 12
[7] = drug route iv, sc, Ex 18 iv qd 3 bid 4-9, sc bid 10-11, Ex 20 iv qd 3,5 bid 4,6-8, sc bid 9-11 qd 12, read-out: MTD

T1 sequence (P11388 whole entry): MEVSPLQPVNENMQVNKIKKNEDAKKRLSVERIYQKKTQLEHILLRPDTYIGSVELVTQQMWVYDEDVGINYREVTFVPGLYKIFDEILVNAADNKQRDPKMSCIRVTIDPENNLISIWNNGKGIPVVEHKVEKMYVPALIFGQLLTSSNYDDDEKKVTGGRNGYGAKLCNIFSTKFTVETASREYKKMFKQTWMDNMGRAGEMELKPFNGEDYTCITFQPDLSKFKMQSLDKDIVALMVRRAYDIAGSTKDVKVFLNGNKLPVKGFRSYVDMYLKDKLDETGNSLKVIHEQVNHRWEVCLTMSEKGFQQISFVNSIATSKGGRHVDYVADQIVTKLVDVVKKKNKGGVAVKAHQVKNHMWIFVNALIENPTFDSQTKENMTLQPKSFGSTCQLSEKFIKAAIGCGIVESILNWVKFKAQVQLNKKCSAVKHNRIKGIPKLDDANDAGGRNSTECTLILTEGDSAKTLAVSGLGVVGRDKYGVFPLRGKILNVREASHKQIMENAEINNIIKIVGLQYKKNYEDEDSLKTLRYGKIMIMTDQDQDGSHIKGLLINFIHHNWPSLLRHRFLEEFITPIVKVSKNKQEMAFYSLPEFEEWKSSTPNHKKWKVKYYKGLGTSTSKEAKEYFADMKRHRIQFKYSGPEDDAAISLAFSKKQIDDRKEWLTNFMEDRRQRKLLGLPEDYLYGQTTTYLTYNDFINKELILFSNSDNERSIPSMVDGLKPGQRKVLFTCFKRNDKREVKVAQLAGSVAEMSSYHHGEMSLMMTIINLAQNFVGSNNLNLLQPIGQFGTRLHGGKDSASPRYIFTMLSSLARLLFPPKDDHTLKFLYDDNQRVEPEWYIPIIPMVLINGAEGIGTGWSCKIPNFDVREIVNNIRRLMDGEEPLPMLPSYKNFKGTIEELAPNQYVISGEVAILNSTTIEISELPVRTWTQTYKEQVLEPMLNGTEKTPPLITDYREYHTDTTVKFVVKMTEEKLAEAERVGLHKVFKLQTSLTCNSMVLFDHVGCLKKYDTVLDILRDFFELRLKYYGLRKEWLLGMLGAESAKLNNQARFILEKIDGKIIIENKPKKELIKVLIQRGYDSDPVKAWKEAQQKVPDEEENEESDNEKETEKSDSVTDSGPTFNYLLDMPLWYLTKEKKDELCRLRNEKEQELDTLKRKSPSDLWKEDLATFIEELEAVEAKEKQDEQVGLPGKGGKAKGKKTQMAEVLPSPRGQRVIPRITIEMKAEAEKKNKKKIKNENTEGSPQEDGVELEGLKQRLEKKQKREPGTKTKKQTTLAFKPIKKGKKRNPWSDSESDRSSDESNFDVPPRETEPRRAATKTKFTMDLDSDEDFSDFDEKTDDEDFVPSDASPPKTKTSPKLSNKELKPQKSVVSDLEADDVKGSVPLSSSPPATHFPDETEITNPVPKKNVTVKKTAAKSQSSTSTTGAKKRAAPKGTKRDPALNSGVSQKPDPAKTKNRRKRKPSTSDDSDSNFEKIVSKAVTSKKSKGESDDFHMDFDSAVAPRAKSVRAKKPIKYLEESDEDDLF

| Compound | EC50 [1] [µM] | T/C % ([2]; drug route sc, Ex 3 qd 3-12, Ex 26 qd 3,5-7 bid 4) [%] | MTD ([3]; drug route sc, qd 3-12, footnote 1, read-out: MTD (MTD not achieved, maximum dose tested)) [mg/kg] | IC50 [4] [µM] | IC50 [5] [µM] | T/C % [2, 6] [%] | MTD [3, 7] [mg/kg] |
| --- | --- | --- | --- | --- | --- | --- | --- |
| Cc1cc(-c2c(F)cc3c(=O)c(Cc4ccccc4)cn(C4CC4)c3c2F)cc(C)n1 [Example 3] | 3.9 | > 100 | > 3750 | 7.3 | 7.1 | – | – |
| Cc1cc(-c2c(F)cc3c(=O)c(Cc4ncc[nH]4)cn(C4CC4)c3c2F)cc(C)n1 [Example 18] | 1.1 | – | – | 1.1 | – | 21 | 88 |
| Cc1cc(-c2c(F)cc3c(=O)c(Cc4cccc(F)c4OCc4ccccc4)cn(C4CC4)c3c2F)cc(C)n1 [Example 20] | > 90 | – | – | 0.25 | – | 80 | 336 |
